Data: publication PMC4921109 (Cancer Chemotherapy and Pharmacology, 2016)
“Also recorded” adds a separate entry of the source. Read-outs that look alike come from different tables or passages of the source.

Columns and labels:
[1] = vismodegib; ANOVA, back-transformed; day 7 (day 11 in Arm B)
[2] = design: method as in PMID 19845436; conditions: cited from earlier work
CYP2C9 and CYP3A4 = conditions: cited from earlier work
Caco-2 cells = conditions: cited from earlier work
[3] = cited from earlier work
[4] = Phase Ib drug–drug interaction study: safety and tolerability (adverse events); format: in vivo, human
Text: This was a phase Ib, open-label, four-arm, parallel design, multicenter, multiple-dose study in healthy female subjects of non-childbearing potential. Subjects were randomly assigned to 1 of 4 treatment arms in a 1:1:1:1 ratio with stratification according to AAG concentration [low (0.5–0.73 g/L), medium (0.74–0.96 g/L), or high (0.97–1.2 g/L)].

clinical = conditions: female, human, plasma, po, 150 mg
P-glycoprotein (P-gp) = conditions: MDCK cells overexpressing P-gp; cited from earlier work
human hepatocytes = tested on: human hepatocytes; design: method as in PMID 19845436; conditions: 3-h incubation with human hepatocytes; cited from earlier work
[5] = cited from earlier work; remark: listed apart in the source
[6] = unbound vismodegib; geometric mean (CV %); 2, 6 and 12 h postdose on day 7 (day 11 in Arm B); vismodegib 150 mg QD
Procedure: PK parameters were calculated using noncompartmental methods with WinNonlin (Pharsight Corporation, Mountain View, CA; Version 5.2); the PK analysis used actual times as recorded on the case report form.

[7] = cited from earlier work; remark: listed apart in the source
[8] = number of subjects (percent), safety population

CS(=O)(=O)c1ccc(C(=O)Nc2ccc(Cl)c(-c3ccccn3)c2)c(Cl)c1 [Vismodegib, 2-chloro-N-(4-chloro-3-(pyridin-2-yl)phenyl)-4-(methylsulfonyl) benzamide]
Geometric LS mean of AUC0–24h at steady state [1]: 402 µmol·h/L
Predicted preclinical efficacious levels (unbound concentration range required for efficacy) [2]: 0.042 to 0.068 µM
Metabolizing enzymes (CYP2C9 and CYP3A4): primarily metabolized by CYP2C9 and CYP3A4
Permeability (Caco-2 cells): high permeability
Absolute bioavailability at steady state [3]: less than 10%
Change in steady-state plasma concentrations with dose ([3]; daily dose increased from 150 to 270 or 540 mg): no increase
Increase in total clearance with multiple dosing ([3]; healthy subjects): 81%
Oral steady-state AUC0–24h after multiple dosing compared with AUC from zero to infinity after a single dose ([3]; healthy subjects): approximately eightfold lower
PK variability explained by AAG levels ([3]; patients): > 70%
PK variability explained by AAG levels ([3]; ref data on file): > 70%
Terminal elimination half-life ([3]; single dose): 12 days
Most frequent AEs related to vismodegib: constipation ([4]; across the study): 10.5%
Most frequent AEs related to vismodegib: diarrhea ([4]; across the study): 8.0%
Most frequent AEs related to vismodegib: headache ([4]; across the study): 10.5%
Most frequent AEs related to vismodegib: nausea ([4]; across the study): 9.3%
Treatment-emergent AE: Abdominal distention [4, 8]: 1 (4.5)
Treatment-emergent AE: Abdominal pain [4, 8]: 1 (4.5)
Treatment-emergent AE: Constipation [4, 8]: 4 (18.2)
Treatment-emergent AE: Diarrhea [4, 8]: 1 (4.5)
Treatment-emergent AE: Dizziness [4, 8]: 2 (9.1)
Treatment-emergent AE: Flatulence [4, 8]: 1 (4.5)
Treatment-emergent AE: Headache [4, 8]: 4 (18.2)
Treatment-emergent AE: Nausea [4, 8]: 2 (9.1)
Treatment-emergent AE: Pruritus [4, 8]: 0
Treatment-emergent AE: Rash [4, 8]: 0
Number of treatment-emergent AEs considered related to vismodegib ([4]; of the 127 treatment-emergent AEs): 92
AUC(0-t) (clinical): 140 µM·h
Cmax (clinical): 7 µM
Tmax (clinical): 6 h
P-gp substrate status (P-glycoprotein (P-gp)): weak substrate of P-gp; also recorded: P-glycoprotein (P-gp) substrate
Parent remaining (human hepatocytes): 96%
Decrease in solubility from pH 2 to 7 [5]: 10,000 fold
Css,ave,u (average unbound plasma concentration at steady state) [6]: 0.150 (50.2) µmol/L

CC(=O)N1CCN(c2ccc(OCC3COC(Cn4ccnc4)(c4ccc(Cl)cc4Cl)O3)cc2)CC1 (centres unmarked) [ketoconazole]
Impairment of absorption by acid-reducing agents [7]: more than 90%

COC(=O)N[C@H](C(=O)N[C@@H](Cc1ccccc1)[C@@H](O)CN(Cc1ccc(-c2ccccn2)cc1)NC(=O)[C@@H](NC(=O)OC)C(C)(C)C)C(C)(C)C [atazanavir]
Change in bioavailability on co-administration of the PPI lansoprazole [7]: large reduction
